Source: patent US9518008B2, “(1S,2S,3S,4R)-3-[(1S)-1-acetylamino-2-ethyl-butyl]-4-uanidino-2-hydroxyl-cyclopentyl-1-carboxylic acid hydrates pharmaceutical uses thereof” (Institute of Pharmacology and Toxicology Academy of …, priority 2007, dated 2016)
pIC50: −log10 of the molar value. Where two headings read alike, the source gives them in different places.

Key:
[1] = Determination of hygroscopicity (high humidity test); format: physicochemical
Method: The hygroscopicity of the compound of the invention can be tested by a standard hygroscopicity test method. For example, the compound is stored in a sealed vessel at room temperature at a relative humidity of 92.5%, 80% or 75%, and the change in moisture content of the compound is tested by sampling at regular intervals.
At the 5th and 10th days, the products were sampled and determined in aspect of important items relating to stability investigation. […] If the weight gain of a product due to moisture absorption was more than 5%, the product was further experimented according to the same method under a relative humidity of 75%±5%. If the weight gain of a product due to moisture absorption was less than 5%, and other items thereof under investigation met the relevant requirements, no more experiment was needed. The humidity-constant condition could be achieved by placing a saturated saline solution at the lower part of a sealed vessel, e.g., a desiccator, and a NaCl saturated solution (15.5-60° C., a relative humidity of 75%±1%) or a KNO3 saturated solution (25° C., a relative humidity of 92.5%) may be selected according to the requirement of different relative humidity.

[2] = Accelerated stability test of the hydrates; conditions: for Character / Content / Change in weight: 40° C., 75% RH
Method: The stability of the compound of the invention can be tested by a standard stability test method, such as the methods specified in Guidelines for Stability Testing of Drug Substances involved in Appendix XIX C of Chinese Pharmacopoeia (2005 edition). For example, the stability of the compound of the general formula (I) can be tested by an accelerated stability test method, e.g., the stability of the compound of the general formula (I), at 0, 1, 2, 3, 6 months, is tested respectively under the conditions: 40° C., 75% relative humidity; 40° C., 92.5% relative humidity; and 80° C. The change in principal agent and relevant substances can be analyzed by thin layer chromatography, high performance liquid chromatography, and etc.
The device used should be capable of controlling temperature with a precise of ±2° C., and relative humidity with a precise of ±5%, and could monitor true temperature and humidity. The products were sampled respectively at the end of the 1, 2, 3 and 6 months during the test, and determined in aspect of important items relating to stability investigation.

[3] = Dissolution behavior in water; format: physicochemical; conditions: for dissolution behavior: 100 ml: 300 mg
Method: (1) water for injection (room temperature)
(2) water for injection (80° C.)
(3) water for injection (room temperature, adjusted to be acidic with hydrochloric acid)
(4) water for injection (adjusted to be basic with disodium hydrogen phosphate)

[4] = Influence of different acidic conditions (pH) on stability of trihydrate solution, sterilization; format: physicochemical; conditions: conclusion from sterilization and 60° C. data
Method: The resulting solutions were high pressure steam sterilized at 115° C. for 30 minutes. Then, the solutions were sampled for the determination of change in pH value and change in amount of relevant substances.

[5] = target: Influenza A virus (H3N2) neuraminidase (Influenza A virus, UniProt P03482); assay: Neuraminidase inhibition by fluorimetry with 4-MUNANA; format: biochemical
[6] = tested on: Influenza B virus (B/Jing Fang/76/98) neuraminidase; assay: as above; format: biochemical
[7] = tested on: influenza virus strain FM1 (H1N1); assay: Anti-influenza activity in infected mice (survival); format: in vivo, mice (BALB/C); conditions: 5 times, 14th day after infection
Method: A virus drip is prepared typically by including 500 pfu (plaque forming unit) of mice-compliance influenza virus strain in 50 μl phosphate buffer (containing 0.42% bovine serum albumin), and then dropped into nasal cavity of mice to infect them (BALB/C, female, aged 5-6 weeks, weighted 20 g). The compound of the invention is suspended in physiological saline to obtain different doses, typically from 2.5 mg/kg to 40 mg/kg, and is administered to the mice at different time before and after the viral infection, typically administered by intraperitoneal injection for 5 times, i.e., 1 hour, and 2, 3, 4, 5 days after the viral infection. The assay is performed by using 8 or 12, typically 10 mice. The result is expressed by the ratio of the number of survival mice the 14th day after the viral infection to the number of the mice in assay.
A solution was prepared by including 500 pfu (plaque forming unit) of mice-compliance influenza virus strain FM1 (H1N1) in 50 μl phosphate buffer (containing 0.42% bovine serum albumin), and then dropped into nasal cavity of mice (BALB/C, female, aged 5-6 weeks, weighted 20 g) to infect them with an infective dose of 23.7LD50. The compound of the invention was suspended in physiological saline, and was administered in doses of 2.5 mg/kg, 5 mg/kg, 10 mg/kg, 20 mg/kg to the mice by intraperitoneal injection for 5 times, i.e., 1 hour, and 2, 3, 4, 5 days after the viral infection, respectively. The assay was performed by 10 mice. The result was expressed by the ratio of the number of survival mice the 14th day after the viral infection to the number of the mice in assay.

[8] = Relative humidity 92.5%, 25° C.
[9] = Con. 0.01 nM, virus concentration NA 1/40
[10] = Con. 0.1 nM, virus concentration NA 1/40
[11] = Con. 1 nM, virus concentration NA 1/40
[12] = Con. 10 nM, virus concentration NA 1/40
[13] = Con. 100 nM, virus concentration NA 1/40
[14] = virus concentration NA 1/40, read-out: IC50

Chain of Influenza A virus (H3N2) neuraminidase (P03482 whole entry, looked up): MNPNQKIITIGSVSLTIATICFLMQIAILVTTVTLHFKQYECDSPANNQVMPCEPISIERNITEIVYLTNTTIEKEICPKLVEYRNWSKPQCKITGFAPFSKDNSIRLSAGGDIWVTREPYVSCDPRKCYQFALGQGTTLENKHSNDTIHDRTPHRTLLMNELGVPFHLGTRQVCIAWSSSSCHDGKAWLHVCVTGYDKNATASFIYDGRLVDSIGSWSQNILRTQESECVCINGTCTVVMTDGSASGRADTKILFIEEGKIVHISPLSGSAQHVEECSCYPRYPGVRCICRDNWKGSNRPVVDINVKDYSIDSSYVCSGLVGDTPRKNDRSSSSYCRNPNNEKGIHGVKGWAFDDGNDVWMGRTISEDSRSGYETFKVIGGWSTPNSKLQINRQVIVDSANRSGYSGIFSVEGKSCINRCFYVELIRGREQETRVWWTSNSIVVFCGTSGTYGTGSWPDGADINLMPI

CCC(CC)[C@H](NC(C)=O)[C@H]1[C@H](O)[C@@H](C(=O)O)C[C@H]1NC(=N)N.O.O.O.O.O.O [Hexahydrate, (1S,2S,3S,4R)-3-[(1S)-1-acetylamino-2-ethyl-butyl]-4-guanidino-2-hydroxy-cyclopentyl-1-carboxylic acid hexahydrate]
Hygroscopicity at the 5th day ([1]; Relative humidity 75%): 3.86% | Hygroscopicity at the 10th day ([1]; Relative humidity 75%): 6.33% | Hygroscopicity at the 5th day [1, 8]: 4.37% | Hygroscopicity at the 10th day [1, 8]: 9.96%

CCC(CC)[C@H](NC(C)=O)[C@H]1[C@H](O)[C@@H](C(=O)O)C[C@H]1NC(=N)N.O.O.O [Trihydrate, (1S,2S,3S,4R)-3-[(1S)-1-acetylamino-2-ethyl-butyl]-4-guanidino-2-hydroxy-cyclopentyl-1-carboxylic acid trihydrate]
Hygroscopicity at the 5th day ([1]; Relative humidity 75%): 1.68% | Hygroscopicity at the 10th day ([1]; Relative humidity 75%): 1.83% | Hygroscopicity at the 5th day [1, 8]: 2.11% | Hygroscopicity at the 10th day [1, 8]: 2.24% | weight gain ([1]; ten-day observation test, sealed vessel, room temperature, high relative humidity): about 2.24% | Character ([2]; 0 month): White solid | Content ([2]; 0 month): 99.90% | Change in weight ([2]; 1 month): +0.01% | Character ([2]; 1 month): White solid | Content ([2]; 1 month): 99.95% | Change in weight ([2]; 2 months): −0.02% | Character ([2]; 2 months): White solid | Content ([2]; 2 months): 99.97% | Change in weight ([2]; 3 months): +0.01% | Character ([2]; 3 months): White solid | Content ([2]; 3 months): 99.96% | Change in weight ([2]; 6 months): +0.01% | Character ([2]; 6 months): White solid | Content ([2]; 6 months): 99.91% | stability ([2]; stability test of 1, 2, 3, 6 months): good stability | dissolution behavior ([3]; (1) water for injection (room temperature)): slowly dissolved | dissolution behavior ([3]; (2) water for injection (80° C.)): rapidly dissolved | dissolution behavior ([3]; (3) water for injection, room temperature, acidic with hydrochloric acid): relatively easily dissolved | dissolution behavior, condition (3) compared with (4) ([3]; (4) water for injection adjusted to be basic with disodium hydrogen phosphate): more easily dissolved under acidic condition | optimum pH value (stability in solution) [4]: 4.5-6.5 | inhibitory rate IR [5, 9]: 0.63% | inhibitory rate IR ([5]; Con. 0.01 nM, virus concentration NA 1/80): 12.33% | inhibitory rate IR [5, 10]: 13.23% | inhibitory rate IR ([5]; Con. 0.1 nM, virus concentration NA 1/80): 24.04% | inhibitory rate IR [5, 11]: 60.99% | inhibitory rate IR ([5]; Con. 1 nM, virus concentration NA 1/80): 63.20% | inhibitory rate IR [5, 12]: 99.25% | inhibitory rate IR ([5]; Con. 10 nM, virus concentration NA 1/80): 98.80% | inhibitory rate IR [5, 13]: 100.43% | inhibitory rate IR ([5]; Con. 100 nM, virus concentration NA 1/80): 99.89% | pIC50 ([5]; average of NA 1/40 and NA 1/80, read-out: Average IC50): 9.27 | pIC50 [5, 14]: 9.17 | pIC50 ([5]; virus concentration NA 1/80, read-out: IC50): 9.39 | inhibitory rate IR ([6]; Con. 0.01 nM, virus concentration NA 1/20): 8.81% | inhibitory rate IR [6, 9]: 7.92% | inhibitory rate IR ([6]; Con. 0.1 nM, virus concentration NA 1/20): 15.31% | inhibitory rate IR [6, 10]: 19.17% | inhibitory rate IR ([6]; Con. 1 nM, virus concentration NA 1/20): 39.11% | inhibitory rate IR [6, 11]: 44.84% | inhibitory rate IR ([6]; Con. 10 nM, virus concentration NA 1/20): 82.01% | inhibitory rate IR [6, 12]: 81.45% | inhibitory rate IR ([6]; Con. 100 nM, virus concentration NA 1/20): 97.78% | inhibitory rate IR [6, 13]: 96.71% | pIC50 ([6]; average of NA 1/20 and NA 1/40, read-out: Average IC50): 8.97 | pIC50 ([6]; virus concentration NA 1/20, read-out: IC50): 8.94 | pIC50 [6, 14]: 9.00 | Survival number ([7]; 2.5 mg/kg intraperitoneal): 6/10 | Survival rate ([7]; 2.5 mg/kg intraperitoneal): 60% | Survival number ([7]; 5.0 mg/kg intraperitoneal): 7/10 | Survival rate ([7]; 5.0 mg/kg intraperitoneal): 70% | Survival number ([7]; 10 mg/kg intraperitoneal): 8/10 | Survival rate ([7]; 10 mg/kg intraperitoneal): 80% | Survival number ([7]; 20 mg/kg intraperitoneal): 9/10 | Survival rate ([7]; 20 mg/kg intraperitoneal): 90%

CCC(CC)[C@H](NC(C)=O)[C@H]1[C@H](O)[C@@H](C(=O)O)C[C@H]1NC(=N)N.O [Monohydrate, (1S,2S,3S,4R)-3-[(1S)-1-acetylamino-2-ethyl-butyl]-4-guanidino-2-hydroxy-cyclopentyl-1-carboxylic acid monohydrate]
Hygroscopicity at the 5th day ([1]; Relative humidity 75%): 2.41% | Hygroscopicity at the 10th day ([1]; Relative humidity 75%): 2.77% | Hygroscopicity at the 5th day [1, 8]: 2.83% | Hygroscopicity at the 10th day [1, 8]: 3.35%

CCC(CC)[C@H](NC(C)=O)[C@H]1[C@H](O)[C@@H](C(=O)O)C[C@H]1NC(=N)N.CCC(CC)[C@H](NC(C)=O)[C@H]1[C@H](O)[C@@H](C(=O)O)C[C@H]1NC(=N)N.O.O.O [Sesquihydrate, (1S,2S,3S,4R)-3-[(1S)-1-acetylamino-2-ethyl-butyl]-4-guanidino-2-hydroxy-cyclopentyl-1-carboxylic acid sesquihydrate]
Hygroscopicity at the 5th day ([1]; Relative humidity 75%): 4.01% | Hygroscopicity at the 10th day ([1]; Relative humidity 75%): 6.89% | Hygroscopicity at the 5th day [1, 8]: 4.48% | Hygroscopicity at the 10th day [1, 8]: 7.33%
